According to publication PMC11679778, “Jeju Citrus (Citrus unshiu) Leaf Extract and Hesperidin Inhibit Small Intestinal α-Glucosidase Activities In Vitro and Postprandial Hyperglycemia in Animal Model” (International Journal of Molecular Sciences, 2024):

Key:
[1] = biological target: T1, maltase (rat small intestinal); assay: liberated glucose by glucose oxidase method; type: biochemical; conditions: crude rat intestinal acetone powder supernatant; maltose substrate; 0.1 M phosphate pH 7.0
T1 construct: gene Mgam; native; crude supernatant of commercial rat intestinal acetone powder (Sigma-Aldrich), not purified; maltose as substrate
Excerpt: liberated glucose by glucose oxidase method on maltase (rat small intestinal)

[2] = biological target: T2, rat small intestinal α-glucosidase; assay: pNPG hydrolysis, absorbance […] nm; type: biochemical; conditions: crude rat intestinal acetone powder supernatant; pNPG substrate; 0.1 M phosphate pH 6.9, 37 °C
T2 construct: gene Mgam; native; crude supernatant of commercial rat intestinal acetone powder (Sigma-Aldrich), not purified; pNPG as substrate

HP [1]: 1.04 ± 0.03 mg/mL
HP [2]: 0.99 ± 0.14 mg/mL
Structure (SMILES): COc1ccc([C@@H]2CC(=O)c3c(O)cc(O[C@@H]4O[C@H](CO[C@@H]5O[C@@H](C)[C@H](O)[C@@H](O)[C@H]5O)[C@@H](O)[C@H](O)[C@H]4O)cc3O2)cc1O [hesperidin]
